Literature values as cited in patent publication US20070281911A1, “Use of Adefovir or Tenofovir for Inhibiting Mmtv-Like Viruses Involved in Breast Cancer and Primary Biliary Cirrhosis” (GILEAD SCIENCES INC., priority 2004, published 2007).

Target: MMTV RT enzyme (Mouse mammary tumor virus, UniProt P03365)
Sequence (P03365 861-1437): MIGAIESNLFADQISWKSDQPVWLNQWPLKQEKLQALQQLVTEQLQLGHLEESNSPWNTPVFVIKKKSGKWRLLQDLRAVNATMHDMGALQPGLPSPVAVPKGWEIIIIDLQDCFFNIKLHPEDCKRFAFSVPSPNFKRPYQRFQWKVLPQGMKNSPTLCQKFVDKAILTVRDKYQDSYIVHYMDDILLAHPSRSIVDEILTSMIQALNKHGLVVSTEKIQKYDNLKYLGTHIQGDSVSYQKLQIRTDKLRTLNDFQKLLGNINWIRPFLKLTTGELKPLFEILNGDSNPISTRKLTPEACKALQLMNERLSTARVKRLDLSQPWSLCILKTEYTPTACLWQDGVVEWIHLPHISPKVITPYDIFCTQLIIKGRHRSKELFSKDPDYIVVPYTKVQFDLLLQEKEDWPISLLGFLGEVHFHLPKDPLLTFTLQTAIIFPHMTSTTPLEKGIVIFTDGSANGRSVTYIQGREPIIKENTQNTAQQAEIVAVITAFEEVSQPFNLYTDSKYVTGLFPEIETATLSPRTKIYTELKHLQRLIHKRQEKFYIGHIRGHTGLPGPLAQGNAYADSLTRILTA

Cc1cn([C@H]2C[C@H](N=[N+]=[N-])[C@@H](COP(=O)(O)OP(=O)(O)OP(=O)(O)O)O2)c(=O)[nH]c1=O [AZTppp]
direct inhibition of MMTV RT enzyme compared with HIV RT enzyme: as efficiently as the HIV RT enzyme
